Measured values published in publication PMC8022858, “Discovery of bone morphogenetic protein 7-derived peptide sequences that attenuate the human osteoarthritic chondrocyte phenotype” (Molecular Therapy. Methods & Clinical Development, 2021).

Test system: rat MMT model
Experiment: Rat medial meniscal tear (MMT) model, histopathological scoring of knee joints
Type: in vivo
Conditions: for histology of medial tibia plateau (toluidine blue), cartilage-degenerative changes: 100 ng in 50 μL saline intra-articular, two times per week from 1 week post-surgery, 10 rats per group (Figure 7A); for total joint score: versus saline (Figure 7E)
Method: We next tested whether peptide p[63−82] has the potency to delay the progression of trauma-induced cartilage degeneration in the rat MMT model.[34]^,[35] MMT damage was unilaterally initiated. Starting at 1 week post-MMT surgery, rats were two times per week intra-articularly injected with saline, 100 ng peptide p[63−82] in saline, or 100 ng scrambled peptide p[63−82] in saline. At 4 weeks post-MMT surgery, rats were sacrificed for histopathological scoring of the MMT knee joints. […] However, cartilage-degenerative changes were less apparent in the p[63−82] group (Figure 7A, middle panel). […] The femoral compartment also developed cartilage degeneration but less pronounced. This compartment is also more variable in its degenerative changes.[35] […] Cartilage-degeneration scores in zones 2 and 3 were generally low, as is known for the rat MMT model.[35] […] Other scored histopathological items can be found in Figure S5.
Figure 7 BMP7-derived peptide p[63−82] in rat MMT model The potency of BMP7 peptide p[63−82] to delay the progression of trauma-induced cartilage degeneration was tested in the rat MMT model. 1 week post-MMT-surgery, rats were two times per week intra-articularly injected with saline, 100 ng peptide p[63−82] in saline, or 100 ng scrambled peptide p[63−82] in saline (10 rats per group). All injection volumes were 50 μL. At 4 weeks post-MMT surgery, rats were sacrificed for histopathological scoring of the MMT knee joints. (A) Representative micrographs of toluidine blue-stained sections of medial aspects of the MMT knee joints. Conditions are indicated. (B) Medial tibia cartilage-degeneration scores. (C) Medial femur cartilage-degeneration scores. (D) Medial tibia cartilage-degeneration depth ratios. Scores and ratios are shown for zones 1, 2, and 3 individually.[35] The total scores/ratio are cumulative for zone 1, 2, and 3. (E) Total joint scores. Individual data points represent individual rats. Error bars represent mean ± SEM. Statistical differences were calculated between groups (Mann-Whitney U test), and ∗p < 0.05, ∗∗p < 0.01, and ∗∗∗p < 0.001.
The study was conducted via a contract research project at Bolder BioPATH (Boulder, CO, USA); study designs and animal usage were approved by their Institutional Animal Care and Use Committee (IACUC) prior to study initiation (IACUC protocols BBP13-029 and BBP12-004). Animal care, including room, cage, and equipment sanitation, conformed to accepted guidelines cited in the Guide for the Care and Use of Laboratory Animals (the Guide; 2011) and the applicable Bolder BioPATH standard operating procedures (SOPs). Male Lewis rats (n = 48; ∼283 g; Envigo RMS, Indianapolis, IN, USA) underwent a unilateral MMT on study day 0, as established earlier by Bendele et al.[59]^,[60] Rats were intra-articularly injected on days 7, 10, 14, 17, 21, and 24 with saline (0.9% NaCl, 50 μL/injection/animal), peptide p[63−82] (100 ng [in 50 μL saline]/injection/animal), or scrambled peptide p[63−82] (100 ng [in 50 μL saline]/injection/animal). The animals were euthanized for necropsy 28 days post-surgery.[59]^,[60] Right (surgery) knees from all animals were collected, trimmed of muscle (patella removed), and placed in 10% neutral-buffered formalin and then transferred to 70% ethanol for processing for microscopy. Operated joints were cut into two approximately equal halves in the frontal plane and embedded in paraffin. One section was cut from each knee and stained with toluidine blue. The worst-case scenario for the two halves on each slide was determined and used for evaluation. The tissues were analyzed microscopically by a veterinary pathologist as described earlier[35] (Tables S4–S13).

[1] = 100 ng intra-articular two times per week, 4 weeks (Figure 7D)
[2] = 100 ng intra-articular two times per week, 4 weeks (Figures 7B, 7C)
[3] = 100 ng intra-articular two times per week, 4 weeks

| Substance | histology of medial tibia plateau (toluidine blue), cartilage-degenerative changes (4 weeks) | medial femur cartilage-degeneration score, zone 1, versus saline (100 ng intra-articular two times per week, 4 weeks (Figure 7C)) | depth ratio of tibia cartilage degeneration, zone 1, versus saline [1] | total depth ratio score of tibia cartilage degeneration, versus saline [1] | cartilage-degeneration scores, p[63-82] versus scrambled p[63-82] [2] | combined (total) tibia and femur cartilage-degeneration scores, versus saline [2] | medial tibia cartilage-degeneration score, zone 1, versus saline (100 ng intra-articular two times per week, 4 weeks, Mann-Whitney U test (Figure 7B)) | total joint score [3] | total joint score (100 ng intra-articular two times per week, 4 weeks, listed as p[62−83]) | cartilage-degeneration scores of tibia or femur in any of the 3 zones, versus saline [2] |
| --- | --- | --- | --- | --- | --- | --- | --- | --- | --- | --- |
| H-AAYYSEGESAFPLNSYMNAT-OH [p[63−82]] | less apparent | trend toward a statistically significant lower | significantly lower | significantly lower | did not reveal differences that were statistically significant | significantly lower | significantly lower | significantly lower | significantly improve |  |
| H-SEASPAMYYLNATANFYESG-OH [scrambled p[63−82], scrambled version of peptide p[63−82], reference compound] | diminished toluidine blue staining and lower chondrocyte cellularity at the lateral side of the medial tibia plateau, as well as cartilage degeneration |  |  |  |  | Neither was there a significant difference |  | in between the values for saline and p[63−82] peptide but was not statistically different compared to either one of the saline or p[63−82] conditions |  | no statistically significant differences |
